Measured values reported in patent publication US10478501B2, “Method of treating disorders using a pharmaceutical composition of oligopeptides” (Merck Patent GmbH, priority 2011, dated 2019).

Assays:
[1] = system: MDA-MB-231 breast cancer bone metastases; experiment: Experimental breast cancer bone metastases in nude rats: DCE-MRI parameters amplitude A and kep; type: in vivo, nude rats (RNU strain)
Description: Nude rats (RNU strain) are obtained from Harlan-Winkelmann GmbH (Borchen, Germany) at the age of six weeks and housed in a specific pathogen-free environment in a mini barrier system of the central animal facility. Animals are kept under controlled conditions (21±2° C. room temperature, 60% humidity, 12 h light-dark rhythm) and offered autoclaved food and water ad libitum. Sub-confluent MDAMB-231 cells are harvested using 0.05% Trypsin-EDTA (Gibco®; Invitrogen, Karlsruhe, Germany) counted on a Neubauer's chamber and resuspended in RPMI-1640 to a final concentration of 10^5 cells in 200 μl. Rats are anesthetized using a mixture of nitrous oxide (1 l/min), oxygen (0.5 l/min) and isoflurane (1.5 vol. %). Arterial branches of the right hind leg are dissected and 10^5 cells injected into the superficial epigastric artery as described previously.^28 Bone metastases established and are observed exclusively in the femur, tibia and fibula of the right hind leg. 30 days after cancer cell transplantation, rats (n=24) are randomly divided into two groups, one group receiving the cyclic RGD-peptide inhibitor of αvβ3/αvβ5 integrins (cilengitide, EMD 121974^14, 17, 29; Merck, Darmstadt, Germany) intraperitoneally five times per week (75 mg/kg; n=12 rats) and the other, sham-treated group, serving as a control (n=12 rats). The observation period of all animals is 55 days and no rat in the study dies ahead of schedule.
After the inoculation of cancer cells each rat is imaged at days 30, 35, 45 and 55 using (i) a flat-panel equipped volumetric computed tomograph (Volume CT, Siemens, Germany) and (ii) a 1.5T clinical magnetic resonance scanner (Symphony, Siemens, Erlangen, Germany) equipped with a home-built receive-transmit coil (cylindrical volume resonator with an inner diameter of 83 mm and a usable length of 120 mm). Prior to in vivo imaging with VCT and MRI, rats are anesthetized with nitrous oxide, oxygen and isoflurane as described above.
T2-weighted imaging is performed using a turbo spin echo sequence (orientation axial, TR 3240 ms, TE 81 ms, matrix 152×256, FOV 90×53.4 mm^2, slice thickness 1.5 mm, 3 averages, scan time 3 min 40 s). For dynamic contrast-enhanced MRI, a saturation recovery turbo flash sequence through the largest diameter of the tumor (orientation axial, TR 373 ms, TE 1.86 ms, matrix 192×144, FOV 130×97.5 mm, slice thickness 5 mm, measurements 512, averages 1, scan time 6 min 55 s) is used. After 20 s baseline, 0.1 mmol/kg Gd-DTPA (Magnevist; Bayer Schering Pharma, Berlin, Germany) is intravenously infused for a time period of 10 s.
Unenhanced VCT images and MRI-acquired T2-weighted images are analyzed using the Medical Imaging Interaction Toolkit (MITK, Heidelberg, Germany) to determine volumes of osteolytic lesions and soft tissue components, respectively. DCE-MRI acquired data is analyzed using the Dynalab workstation (Mevis Research, Bremen, Germany) according to the two-compartment model of Brix to determine the parameters amplitude A and exchange rate constant kep, as described.^23, 30 Briefly, the injected contrast media is distributed in both compartments (intravascular space and extravascular, interstitial space). The accumulation of contrast agent in these compartments over time is characterized by the amplitude A (associated with blood volume), whereas the exchange of contrast agent between the intravascular space and the interstitial space is characterized by the exchange rate constant kep (associated with vessel permeability). For determination of the respective values of the amplitude A and kep of bone metastases in our study, a region of interest is placed around the soft tissue component on color maps for A and kep, respectively, using the Dynalab workstation (Mevis Research, Bremen, Germany). […]

[2] = system: H1299; experiment: Cellular radiosensitivity by clonogenic cell survival assay, H1299; type: cell-based, human; settings: combined with γ-radiation, given 1 h before and continued 23 h after irradiation
Description: (§1) Methods: Three non-small cell lung carcinoma lines (NSCLCs) (H460, A549 and H1299) and three head and neck squamous cell carcinoma lines (HNSCCs) (FaDu, SCC-15 and SCC-25) cell lines were used for in vitro experiments. Of these, H460 and FaDu were used for in vivo testing when grown as xenografts in nude mice. The effects of cilengitide (1-50 μg/ml, 24 h) on in vitro cell viability was determined by MTS assay and on cellular radiosensitivity by clonogenic cell survival assay after exposing the cells to graded single doses of γ-radiation with or without cilengitide (given 1 h before and continued for 23 h after irradiation). In vivo effect of cilengitide on radioresponse of xenografts was assessed by tumor growth delay. When tumor xenografts reached 7 mm in diameter cilengitide treatment (30 or 60 mg/d/5 or 10 days) was initiated followed by a single dose of 15 Gy local radiation (using ^137Cs γ-ray source), when the tumors reached 8 mm.

[3] = system: MDA-MB468 human breast tumour cells; experiment: Study 007: MDA-MB-468 primary tumor growth; type: in vivo, female BALB/c nu/nu mice; settings: all three dosing groups (75, 150 or 300 mg/kg) daily s.c., composition according to Example 18; Vehicle Control higher than 350 mm^3
Description: MDA-MB468 human breast tumour cells were orthotopically inoculated into the third mammary fat pad of female BALB/c nu/nu mice. The mice were randomised into groups when the tumors reached a size of approximately 40 mm^3.
The mice in each group received treatment with either Vehicle Control (Placebo) or EMD 121974 (75, 150 or 300 mg/kg as a Composition according to Example 18) by daily subcutaneous injection. Body weight and tumour volume measurements were made for all mice three times per week.

[4] = system: FaDu (HNSCC) tumor xenografts; experiment: Tumor growth delay of FaDu xenografts with radiation; type: in vivo, nude mice
Description: as §1

With `CC(C)[C@H]1C(=O)N[C@@H](CCCN=C(N)N)C(=O)NCC(=O)N[C@@H](CC(=O)O)C(=O)N[C@H](Cc2ccccc2)C(=O)N1C` [Cilengitide, cyclo-(Arg-Gly-Asp-DPhe-NMeVal)] the “DCE-MRI parameter exchange rate constant kep, mean relative value” ([1]; day 35 (controls 86%; p>0.05)) was 69 % of initial value, the “DCE-MRI parameter amplitude A, mean relative value” ([1]; day 35 post inoculation (controls 106%; p>0.05)) was 97 % of initial value and the “DCE-MRI parameter exchange rate constant kep, mean relative value” ([1]; day 45 (controls 63%; p>0.05)) was 88 % of initial value. The “DCE-MRI parameter amplitude A, mean relative value” ([1]; day 45 (controls 125%; p<0.05)) was 102 % of initial value, the “DCE-MRI parameter exchange rate constant kep, mean relative value” ([1]; day 55 (controls 40%; p<0.05)) was 72 % of initial value and the “DCE-MRI parameter amplitude A, mean relative value” ([1]; day 55 (controls 105%; p<0.05)) was 93 % of initial value. The radiosensitivity enhancement factor [2] was 1.3, the “tumour volume on day 60” value [3] was “below 200 mm^3” and the “enhancement factor of tumor radioresponse (tumor growth delay)” value ([4]; with single dose of 15 Gy local radiation) was 2.0. The “antitumor activity as a single agent (tumor growth delay)” value ([4]; without radiation) was “no antitumor activity”.
